Reference: patent US12534496B2, “Polymorphic forms of Cyclo (-His-Pro) and methods of use to treat kidney disease” (NovMetaPharma Co., Ltd., priority 2018, dated 2026)
Like-named read-outs stand apart in the source and are kept apart here.

Legend:
Assay type in all cases: physicochemical
[1] = Solubility of CHP hydrate (Pattern 2) in water/acetone
[2] = pH solubility assessment in buffers at 37 °C; details: for μL for Dissolution at 37° C.: 100 mg solid
Description: CHP patterns 1 and 2 were prepared for pH solubility assessment as follows: • 100 mg of CHP pattern 1 and pattern 2 were each weighed out into 4, 5 mL screw top glass vials; • 100 μL of a selected buffer, pre-heated to 37° C., was added to each vial; • Samples were heated to 37° C. in an incubator shaker for ca. 10 minutes after each volume of buffer and checked for sample dissolution.

[3] = Dry stability at 35, 40, 50 and 65 °C (XRPD)
Description: Drying stability was carried out at 35° C., 40° C., 50° C., and 65° C. respectively.

[4] = Drug substance stability study, 25±2 °C/60±5% RH (appearance, assay, impurities, chiral, water content, XRPD); details: 25° C./60% RH (table title)
Description: Packaging: Sample at each individual time point was packaged into double Antistatic LDPE bags both secured with cable ties. The sample packed for the same storage condition were stored together within a fiber drum, and closed with metal lid. All packages were prepared in the same fashion and labeled.
Time zero will be the day samples are placed on station. Initial testing results were from the release testing as long as samples are put on station within 30 days of the release test date, otherwise, initial was repeated.
Study Requirements: Total 22.5 g sample (Total 21 g sample if initial test is not needed): • 1.5 g for initial test if needed; • 21 g sample will be divided into 14 parts, 1.5 g for each parts, sample for each part should be weighed into double Antistatic LDPE bags both secured with cable ties. The stability samples for each storage condition are stored together within a fiber drum, closed with metal lid, and then stored at 25±2° C./60+5% RH (9 bags) and 40±2° C./75±5% RH (5 bags), respectively. Sampling Time:
Samples stored not more than 6 months were pulled on schedule date or within 2 business days after the scheduled date. Samples stored more than 6 months were pulled within +2 business days of the scheduled date.
Stability samples stored for one month to one year, and greater than one year were analyzed and completed within 10 and 20 business days after the samples pulled out from stability chamber, respectively. If time zero testing was performed, it was analyzed within 10 business days after study initiation.

`O=C1N[C@@H](Cc2cnc[nH]2)C(=O)N2CCC[C@@H]12` [Pattern 2, Pyrrolo [1,2-a]pyrazine-1,4-dione, hexahydro-3-(1H-imidazol-5-ylmethyl)-, hydrate (1:1), (3S, 8aS)-] gave a solubility ([1]; water/acetone 0/10 (v/v), 50 °C, organic solvent or mixture) of 14 mg/mL, a solubility ([1]; water/acetone 0.5/9.5 (v/v), 50 °C, organic solvent or mixture) of 49 mg/mL and a solubility ([1]; water/acetone 1/9 (v/v), 5 °C, organic solvent or mixture) of 48 mg/mL. The solubility ([1]; water/acetone 1/9 (v/v), 50 °C, organic solvent or mixture) was 159 mg/mL, the solubility ([1]; water/acetone 2/8 (v/v), 5 °C, organic solvent or mixture) was 110 mg/mL and the solubility ([1]; water/acetone 4/6 (v/v), 5 °C, organic solvent or mixture) was 179 mg/mL. It also gave a solubility ([1]; water/acetone 6/4 (v/v), 5 °C, aqueous with cosolvent or surfactant or cyclodextrin) of 206 mg/mL, a solubility ([1]; water/acetone 8/2 (v/v), 5 °C, aqueous with cosolvent or surfactant or cyclodextrin) of over 200 mg/mL and a solubility ([1]; water/acetone 9/1 (v/v), 5 °C, aqueous with cosolvent or surfactant or cyclodextrin) of 215 mg/mL. It also gave a solubility ([1]; water/acetone, 5 °C, organic solvent or mixture, water/acetone 0/10 (v/v)) of 17 mg/mL, a solubility ([1]; water/acetone, 5 °C, organic solvent or mixture, water/acetone 0.5/9.5 (v/v)) of 19 mg/mL and a solubility ([1]; water/acetone, 50 °C, aqueous with cosolvent or surfactant or cyclodextrin, water/acetone 6/4 (v/v)) of over 200 mg/mL. For the same molecule, the solubility ([1]; water/acetone, 50 °C, aqueous with cosolvent or surfactant or cyclodextrin, water/acetone 8/2 (v/v)) was over 200 mg/mL, the solubility ([1]; water/acetone, 50 °C, aqueous with cosolvent or surfactant or cyclodextrin, water/acetone 9/1 (v/v)) was over 200 mg/mL and the solubility ([1]; water/acetone, 50 °C, organic solvent or mixture, water/acetone 2/8 (v/v)) was over 200 mg/mL. For the same molecule, the solubility ([1]; water/acetone, 50 °C, organic solvent or mixture, water/acetone 4/6 (v/v)) was over 200 mg/mL, the “μL for Dissolution at 37° C.” value ([2]; buffer pH 1) was 300 µL and the “μL for Dissolution at 37° C.” value ([2]; buffer pH 4) was 300 µL. For the same molecule, the “μL for Dissolution at 37° C.” value ([2]; buffer pH 6.8) was 300 µL, the “μL for Dissolution at 37° C.” value ([2]; buffer pH 7.2) was 300 µL and the solubility at 10 min ([2]; aqueous buffer, thermodynamic from solid, buffer pH 7.2, 37 °C, read-out: Approximate Solubility) was 333 to 500 mg/mL. For the same molecule, the solubility at 10 min ([2]; buffer pH 1, 37 °C, pH 1, thermodynamic from solid, read-out: Approximate Solubility) was 333 to 500 mg/mL, the solubility at 10 min ([2]; buffer pH 4, 37 °C, pH 4, aqueous buffer, thermodynamic from solid, read-out: Approximate Solubility) was 333 to 500 mg/mL and the solubility at 10 min ([2]; buffer pH 6.8, 37 °C, pH 6.8, aqueous buffer, thermodynamic from solid, read-out: Approximate Solubility) was 333 to 500 mg/mL. The solubility at 10 min ([2]; buffer, aqueous buffer, thermodynamic from solid, all pH values tested (pH 1, 4, 6.8 and 7.2), 37 °C, read-out: Solubility (estimated)) was 333 to 500 mg/mL, the “Drying stability (form)” value ([3]; drying at 35-65 °C, up to 4 days) was “stable up to 40 °C for at least 4 days” and the XRPD ([3]; drying at 35 °C, 1 d) was “Pattern 2”. The XRPD ([3]; drying at 35 °C, 4 d) was “Pattern 2”, the XRPD ([3]; drying at 40 °C, 1 d) was “Pattern 2” and the XRPD ([3]; drying at 40 °C, 2 d) was “Pattern 2”. For the same molecule, the XRPD ([3]; drying at 40 °C, 3 d) was “Pattern 2”, the XRPD ([3]; drying at 40 °C, 4 d) was “Pattern 2” and the XRPD ([3]; drying at 50 °C, 1 d) was “Pattern 2”. The XRPD ([3]; drying at 50 °C, 2 d) was “Pattern 2”, the XRPD ([3]; drying at 50 °C, 4 d) was “Pattern 1” and the XRPD ([3]; drying at 65 °C, 1 d) was “Pattern 2”. The XRPD ([3]; drying at 65 °C, 2 d) was “Pattern 1”, the “Drying stability (form)” value ([3]; lab oven under −0.09 MPa) was “stable at below 40 °C” and the Appearance ([4]; 3M) was “Off-white powder”. For the same molecule, the “Assay by HPLC” value ([4]; 3M) was 103.3%, the “Chiral, HPLC: chiral purity” value ([4]; 3M) was 100.0% and the “Impurities, HPLC: H-His-OH” value ([4]; 3M) was 0.08%. For the same molecule, the “Impurities, HPLC: each other individual (unspecified) impurity” value (“Impurities, HPLC: each other individual” for short) ([4]; 3M) was “individual <0.05%”, the “Water content (KF)” value ([4]; 3M) was 7.1% and the Appearance ([4]; 6M) was “Off-white powder”. For the same molecule, the “Assay by HPLC” value ([4]; 6M) was 103.4%, the “Chiral, HPLC: chiral purity” value ([4]; 6M) was 100.0% and the “Impurities, HPLC: H-His-OH” value ([4]; 6M) was 0.08%. The “Impurities, HPLC: each other individual” value ([4]; 6M) was “individual <0.05%”, the “Water content (KF)” value ([4]; 6M) was 7.2% and the Appearance ([4]; Initial) was “Off-white powder”. For the same molecule, the “Assay by HPLC” value ([4]; Initial) was 103.4%, the “Chiral, HPLC: chiral purity” value ([4]; Initial) was 100.0% and the “Impurities, HPLC: H-His-OH” value ([4]; Initial) was 0.07%. For the same molecule, the “Impurities, HPLC: each other individual” value ([4]; Initial) was “individual <0.05%”, the “Water content (KF)” value ([4]; Initial) was 7.4% and the XRPD ([4]; Initial, vs reference standard of Pattern 2 (PS03027-15-H)) was “Conform to reference”.
